# Laboratory results as given in PubChem BioAssay AID488788 (Broad Institute, 2010).
# Inconclusive results are not listed. Activity calls are given as the source filed them. The rule behind the calls is not given here.
# Molecular target: CAAX prenyl protease 2 (Saccharomyces cerevisiae (strain ATCC 204508 / S288c)) (UniProt Q03530)
# Assay: yeast Rce1 CAAX endoprotease inhibition – biochemical, plate reader, cherry-pick, dose response (AID 488788)
# Conditions: Rce1p enzyme activity, at 10 µM (top of the series)
# Sequence of CAAX prenyl protease 2 (Saccharomyces cerevisiae (strain ATCC 204508 / S288c)) (Q03530 whole entry, looked up): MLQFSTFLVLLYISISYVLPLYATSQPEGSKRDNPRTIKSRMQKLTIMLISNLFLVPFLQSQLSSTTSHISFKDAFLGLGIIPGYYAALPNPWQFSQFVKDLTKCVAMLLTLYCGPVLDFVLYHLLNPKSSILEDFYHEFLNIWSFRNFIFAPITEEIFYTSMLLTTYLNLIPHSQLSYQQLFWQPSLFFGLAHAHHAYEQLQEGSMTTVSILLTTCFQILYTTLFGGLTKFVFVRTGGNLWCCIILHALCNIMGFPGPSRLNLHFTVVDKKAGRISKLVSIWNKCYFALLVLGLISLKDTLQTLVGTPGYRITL
row,Structure (SMILES),"activity change, negative = inhibition"
1,O=[N+]([O-])c1cc(S(=O)(=O)N2CCCC2)ccc1NN=C1CCCCC1,inactive
2,CCCCNC(=O)C(CC)Sc1nc2sc(C(=O)OC)c(C)c2c(=O)n1N (stereo not drawn),inactive
3,CC(C)N1CCN(S(=O)(=O)c2ccc3ccccc3c2)CC1,inactive
4,Cc1nccc2c1[nH]c1ccccc12,inactive
5,CC(=O)N1c2ccc([N+](=O)[O-])cc2NC(=O)CC1C (stereo not drawn),inactive
6,CN1CCN(c2ccc([N+](=O)[O-])c(Sc3nncn3C)c2)CC1,inactive
7,O=C(NCC1CC1)c1ccc(Nc2nc3ccc(Br)cc3[nH]2)cc1,inactive
8,COc1cc(-c2nc3ccccn3c2/N=C/c2ccccc2)ccc1O,inactive
9,CC(C)c1cccc(OCC(=O)Nc2ccc(S(=O)(=O)Nc3ccccn3)cc2)c1,inactive
10,COc1ccc(CC(=O)OCC(=O)Nc2ccc(Br)cc2)cc1,inactive
11,COc1ccc2[nH]c(C(=O)NCCCn3ccnc3)cc2c1,inactive
12,COc1ccc(C2C3=C(CC(C)(C)CC3=O)Nc3n[nH]c(C)c32)cc1 (stereo not drawn),inactive
13,Oc1ccc(-c2cn3cc(C(F)(F)F)ccc3n2)cc1,inactive
14,CC(=O)c1c(C)[nH]c(C(=O)OCc2ccc(Br)cc2)c1C,inactive
15,COc1cc(-c2nc3ccccn3c2/N=C/c2cccc(OC)c2O)ccc1O,inactive
16,CC(C)CC(=O)Nc1ccc2oc(-c3cccnc3)nc2c1,inactive
17,CC(Oc1ccc2c3c(c(=O)oc2c1)CCCC3)C(=O)NC1CC(C)(C)NC(C)(C)C1 (stereo not drawn),inactive
18,COc1ccc(-c2c(-c3ccsc3)oc3ccc(N4CCOCC4)cc23)cn1,inactive
19,FC(F)(F)c1cc(Oc2ccccc2)ncc1-c1nnc(-c2ccccc2Cl)o1,inactive

row,Structure (SMILES),"activity change, negative = inhibition"
1,C=CCn1c(N2CCCCCC2)nc2c1c(=O)n(C)c(=O)n2C,inactive
2,CN1CCN(C(=S)NC(=O)c2ccccc2Cl)CC1,inactive
3,COc1ccc(-c2cc3ccccc3n2CC(O)CNCCO)cc1 (stereo not drawn),inactive
4,COc1ccccc1C1=NN(C2=NN=C(N)Cc3ncnn32)C(O)(C(F)(F)F)C1 (stereo not drawn),inactive
5,O=C(NCCc1c[nH]c2ccccc12)OCCSS(=O)(=O)O,inactive
6,O=C1C(Cc2c[nH]c3ccccc23)NC(=S)N1Cc1ccccc1 (stereo not drawn),inactive
7,C#CCNC(=O)C1=C[C@@H](C2CCCCC2)C[C@@H](OCc2ccc(CO)cc2)O1,inactive
8,Nc1c(C(=O)NCc2ccccc2)sc2nc(N3CCOCC3)c3c(c12)CCCC3,inactive
9,CN(C)CC(C)(C)CNC(=S)NCc1ccc2c(c1)OCO2,inactive
10,CC(=O)OCC[N+](C)(C)C,inactive
11,CC(=O)c1c(O)cc(O)c(C(C)=O)c1O,inactive
12,Cc1ccnc(-n2c(-c3ccco3)nc3ccccc3c2=O)c1,inactive
13,O=C(O)c1ccc(N/N=C/c2ccc(-c3ccccc3Cl)o2)cc1,inactive
14,C/C(=N\NC(=O)c1ccc(Br)cc1)c1cccc(NC(=O)c2cccnc2)c1,inactive
15,CCOc1ccc(-n2ccnc(SCC(=O)NC3CCCC3)c2=O)cc1,inactive
16,CCn1c(C)nc2c(=O)oc3ccccc3c21,inactive
17,COc1ccc2c3c([nH]c2c1)C(C)=NCC3,inactive
18,CCc1nc(Nc2ccncc2)c2oc3ccccc3c2n1,inactive
19,CN1CC(C(=O)c2ccc(Cl)cc2)C(c2ccc(Cl)cc2Cl)C1 (stereo not drawn),inactive
